The test has as its system prostaglandine 6KF1α. Briefly: Production of prostaglandin 6KF1α by HaCaT human keratinocytes stimulated with calcium ionophore A23187 (ELISA). It is filed as cell-based, humain. As to conditions: 5 h culture; for PG6KF1α: n = 3. The source says:
Conformément à la présente invention, il a été mis en évidence une synergie d'activité anti-inflammatoire du lactamide et du glycyrrhétinate de zinc et/ou du glycyrrhétinate de stéaryl et/ou de glycyrrhétinate d'ammonium. Cette synergie a été objectivée à la suite d'une évaluation sur la production de prostaglandine 6KF1α par le kératynocyte humain.
Dans cette étude, on s'est intéressé en particulier à une prostaglandine, la PG6KF1α, métabolite stable de la prostarycline, qui est un des métabolites majeurs produits par le kératinocyte stimulé, et représentatif de la modulation de la production des métabolites de l'acide arachidonique issus de la voie de la cyclo-oxygénase.
Sur ce modèle, on a évalué l'activité du glycyrrhétinate de zinc en association avec le lactamide sur la production de PG6KF1α induite chez le kératinocyte par un stimulant de la cascade de l'acide arachidonique, le ionophore calcique A23187.
On a réalisé ensuite la même étude en évaluant l'activité du stéaryl glycyrrhétinate en association avec le lactamide.
La suspension de kératinocytes humains HaCaT dans le RPMI 10% SVF est distribuée dans les plaques 6 puits (1x106 cellules/2ml/puits) et incubée pendant 16 heures à 37°C dans une atmosphère à 5% CO2. Les kératinocytes sont alors rincés avec du PBS pour éliminer les cellules non-adhérentes puis exposés aux produits à tester inclus dans du RPMI sans SVF (qui pourrait interférer dans le dosage).
Le lactamide MEA est directement solubilisé dans le RPMI sans SVF à une concentration de 1 0mg/ml.
Le glycyrrhétinate de zinc est préparé dans l'éthanol absolu à 100 mg/ml puis repris dans le RPMI sans SVF à 10 mg/ml.
Le stéaryl glycyrrhétinate est préparé dans le DMSO à […] puis repris dans le RPMI sans SVF à 10mg/ml.
Le glycyrrhétinate d'ammonium est préparé dans l'éthanol absolu à 100 mg/ml puis repris dans le RPMI sans SVF à 25 mg/ml.
Pour chaque lot, 3 puits sont réalisés. Les cellules sont incubées pendant 1 heure avec les produits à tester puis le ionophore calcique A23187, est ajouté pendant 5 heures à la concentration 5µM.
Les milieux de culture de chacun des puits sont ensuite récupérés, centrifugés à 3000 tr/mn et conservés à -80°C.
La production de prostaglandine 6KF1α pour chacun des essais est mesurée par Kit Elisa EUROMEDEX.
Les lots suivants ont été réalisés : • Lot témoin • Lot témoin stimulé A23187 5µM • Lactamide MEA 500µg/ml + A23187 5µM • Glycyrrhétinate de zinc 10 µg/ml + A23187 5µM • Lactamide MEA 500µg/ml/Glycyrrhétinate de zinc 10µg/ml + A23187 5µM • Stéaryl glycyrrhétinate 50µg/ml + A23187 5µM • Lactamide MEA 500µg/ml/Stéaryl glycyrrhétinate 50µg/ml + A23187 5µM • Glycyrrhétinate d'ammonium 25 µg/ml + A23187 5µM • Lactamide MEA 500 µg/ml/Glycyrrhétinate d'ammonium 25 µg/ml + A23187 5µM.
Les résultats sont exprimés en picogrammes de prostaglandine 6KF1α pour 1x10^6 kératinocytes et par ml de culture.
L'analyse statistique des résultats est réalisée par une analyse de variance et par le test de Dunnett.
(In general: ELISA stands for enzyme-linked immunosorbent assay.)

For `CC1(C)[C@@H](O)CC[C@]2(C)[C@H]3C(=O)C=C4[C@@H]5C[C@@](C)(C(=O)O)CC[C@]5(C)CC[C@@]4(C)[C@]3(C)CC[C@@H]12` [Glycyrrhétinate d'ammonium, glycyrrhétinate d'ammonium], the PG6KF1α (Glycyrrhétinate d'ammonium 25µg/ml + A23187 5µM) was 80,74 ± 3,67 pg/1x10^6 kératinocytes/ml. The inhibition at 25 µg/mL (Homo sapiens, Glycyrrhétinate d'ammonium 25µg/ml + A23187 5µM, n = 3, read-out: % activité / Témoin A23187) amounted to 30%. `CC(O)C(=O)NCCO` (stereo not shown) [Lactamide MEA, monoéthanolamide de l'acide lactique]: the inhibition at 500 µg/mL (Homo sapiens, Lactamide MEA 500µg/ml + A23187 5µM, n = 3, read-out: % activité / Témoin A23187) is -8%. Also, the PG6KF1α (Lactamide MEA 500µg/ml + A23187 5µM, 1 h pre-incubation) is on record as 124,87 ± 11,50 pg/1x10^6 kératinocytes/ml. Turning to `CCCCCCCCCCCCCCCCCCOC(=O)[C@@]1(C)CC[C@]2(C)CC[C@]3(C)C(=CC(=O)[C@@H]4[C@@]5(C)CC[C@H](O)C(C)(C)[C@@H]5CC[C@]43C)[C@@H]2C1` [Stéaryl glycyrrhétinate, stéaryl glycyrrhétinate], the inhibition at 50 µg/mL (Homo sapiens, Stéaryl glycyrrhétinate 50µg/ml + A23187 5µM, n = 3, read-out: % activité / Témoin A23187) worked out at 31%. The PG6KF1α (Stéaryl glycyrrhétinate 50µg/ml + A23187 5µM) was 79,87 ± 5,14 pg/1x10^6 kératinocytes/ml. On to glycyrrhétinate de zinc, for which, where the note is “Glycyrrhétinate de zinc 10µg/ml + A23187 5µM”, the PG6KF1α was 78,37 ± 2,55 pg/1x10^6 kératinocytes/ml.

The values are drawn from patent publication EP1429719B1, “ANTI-INFLAMMATORY DERMOCOSMETOLOGIC COMPOSITION IN PARTICULAR FOR TREATING ACNE AND SEBORRHEIC DERMATITIS” (Pierre Fabre Dermo-Cosmetique, priority 2001, dated 2003).
